Test results published in US9562085B2, “Antimicrobial peptide” (priority 2013, dated 2017).
Non-standard residues stand in square brackets, D forms with d. Residues, ends and D or L forms follow the SMILES beside them.

Tested on: S. aureus JAR
Format: cell-based
Details: JAR, 2 h
Method: S. aureus JAR is described in Campoccia et al. (Int. J. Artif. Organs, 2008 September; 31(9):841-7).
For the in vitro killing assay with P10 variants, S. aureus JAR ([…] CFU/ml) were incubated for 2 hours at 37° C. with various concentrations of the peptides in PBS or in PBS/human plasma (1/1, v/v). […] The LC99.9 is the average value of two independent experiments.

Compound | LC99.9 (μM) (50% plasma) [µM] | LC99.9 (μM) (PBS) [µM]
CC[C@H](C)[C@H](NC(=O)[C@H](CCCCN)NC(=O)[C@H](CCCCN)NC(=O)[C@H](Cc1ccc(O)cc1)NC(=O)[C@H](CCC(=O)O)NC(=O)[C@H](CCCNC(=N)N)NC(=O)[C@H](C)NC(=O)[C@H](CC(C)C)NC(C)=O)C(=O)N[C@H](C(=O)N[C@@H](CCC(=O)O)C(=O)N[C@@H](CCCCN)C(=O)N[C@@H](CC(C)C)C(=O)N[C@@H](CCCCN)C(=O)N[C@@H](CCCNC(=N)N)C(=O)N[C@@H](Cc1c[nH]c2ccccc12)C(=O)N[C@@H](CC(C)C)C(=O)N[C@H](CCCNC(=N)N)C(=O)N[C@@H](CCC(N)=O)C(=O)N[C@H](C(=O)N[C@@H](CC(C)C)C(=O)N[C@@H](CCCNC(=N)N)C(=O)N[C@H](C(=O)N[C@@H](CC(C)C)C(=O)N[C@@H](CCCNC(=N)N)C(N)=O)[C@@H](C)O)C(C)C)C(C)C [Peptide 1301-17, JLAREYKKIVEKLKRWLrQVLRTLRB] (Ac-LAREYKKIVEKLKRWL[dR]QVLRTLR-NH2) | 38.4 | 0.6
CC[C@H](C)[C@H](NC(=O)[C@H](CCCCN)NC(=O)[C@H](CCCCN)NC(=O)[C@H](Cc1ccc(O)cc1)NC(=O)[C@H](CCC(=O)O)NC(=O)[C@H](CCCNC(=N)N)NC(=O)[C@H](C)NC(=O)[C@H](CC(C)C)NC(C)=O)C(=O)N[C@H](C(=O)N[C@@H](CCC(=O)O)C(=O)N[C@@H](CCCCN)C(=O)N[C@@H](CC(C)C)C(=O)N[C@@H](CCCCN)C(=O)N[C@@H](CCCNC(=N)N)C(=O)N[C@@H](Cc1c[nH]c2ccccc12)C(=O)N[C@@H](CC(C)C)C(=O)N[C@@H](CCCNC(=N)N)C(=O)N[C@@H](CCC(N)=O)C(=O)N[C@H](C(=O)N[C@@H](CC(C)C)C(=O)N[C@H](CCCNC(=N)N)C(=O)N[C@H](C(=O)N[C@@H](CC(C)C)C(=O)N[C@@H](CCCNC(=N)N)C(N)=O)[C@@H](C)O)C(C)C)C(C)C [Peptide 1301-21, JLAREYKKIVEKLKRWLRQVLrTLRB] (Ac-LAREYKKIVEKLKRWLRQVL[dR]TLR-NH2) | 38.4 | 0.6
Ac-LAREYKKIVEKLKRFLRQVLRTLR-NH2 [Peptide 1302-40, JLAREYKKIVEKLKRFLRQVLRTLRB] | 76.8 | 1.6
CC[C@H](C)[C@H](NC(=O)[C@H](CCCCN)NC(=O)[C@H](CCCCN)NC(=O)[C@H](Cc1ccc(O)cc1)NC(=O)[C@H](CCC(=O)O)NC(=O)[C@H](CCCNC(=N)N)NC(=O)[C@H](C)NC(=O)[C@H](CC(C)C)NC(C)=O)C(=O)N[C@H](C(=O)N[C@@H](CCC(=O)O)C(=O)N[C@@H](CCCCN)C(=O)N[C@@H](CC(C)C)C(=O)N[C@@H](CCCCN)C(=O)N[C@@H](CCCNC(=N)N)C(=O)N[C@@H](Cc1c[nH]c2ccccc12)C(=O)N[C@@H](CC(C)C)C(=O)N[C@@H](CCCNC(=N)N)C(=O)N[C@@H](CCC(N)=O)C(=O)N[C@@H](C(=O)N[C@@H](CC(C)C)C(=O)N[C@@H](CCCNC(=N)N)C(=O)N[C@H](C(=O)N[C@@H](CC(C)C)C(=O)N[C@@H](CCCNC(=N)N)C(N)=O)[C@@H](C)O)C(C)C)C(C)C [Peptide 1301-19, JLAREYKKIVEKLKRWLRQvLRTLRB] (Ac-LAREYKKIVEKLKRWLRQ[dV]LRTLR-NH2) | 32.0 | 0.6
Ac-LAREYKKIVERLKRWLRQVLRTLR-NH2 [Peptide 1302-31, JLAREYKKIVERLKRWLRQVLRTLRB] | 102.4 | 3.2
Ac-LAREYKKIVEKLKRWLRQVLHTLR-NH2 [Peptide 1302-51, JLAREYKKIVEKLKRWLRQVLHTLRB] | 102.4 | 1.6
Ac-LVREYKKIVEKLKRWLRQVLRTLR-NH2 [Peptide 1302-21, JLVREYKKIVEKLKRWLRQVLRTLRB] | 76.8 | 1.2
CC[C@H](C)[C@H](NC(=O)[C@@H](CCCCN)NC(=O)[C@H](CCCCN)NC(=O)[C@H](Cc1ccc(O)cc1)NC(=O)[C@H](CCC(=O)O)NC(=O)[C@H](CCCNC(=N)N)NC(=O)[C@H](C)NC(=O)[C@H](CC(C)C)NC(C)=O)C(=O)N[C@H](C(=O)N[C@@H](CCC(=O)O)C(=O)N[C@@H](CCCCN)C(=O)N[C@@H](CC(C)C)C(=O)N[C@@H](CCCCN)C(=O)N[C@@H](CCCNC(=N)N)C(=O)N[C@@H](Cc1c[nH]c2ccccc12)C(=O)N[C@@H](CC(C)C)C(=O)N[C@@H](CCCNC(=N)N)C(=O)N[C@@H](CCC(N)=O)C(=O)N[C@H](C(=O)N[C@@H](CC(C)C)C(=O)N[C@@H](CCCNC(=N)N)C(=O)N[C@H](C(=O)N[C@@H](CC(C)C)C(=O)N[C@@H](CCCNC(=N)N)C(N)=O)[C@@H](C)O)C(C)C)C(C)C [Peptide 1301-7, JLAREYKkIVEKLKRWLRQVLRTLRB] (Ac-LAREYK[dK]IVEKLKRWLRQVLRTLR-NH2) | 25.6 | 0.6
